Article PMC5570892, “Indole-based perenosins as highly potent HCl transporters and potential anti-cancer agents” (Scientific Reports, 2017)

System: not listed separately
Test: HPTS assay with TBAOH (electrogenic H+ or OH- transport)
Assay type: biochemical
Conditions: sodium gluconate vesicles, pH 7.0; CCCP at 0.1 mol%; perenosins at loading giving 100% in NMDG-Cl assay
Method: S10.8. General Procedure for the HPTS Assay
Unilamellar vesicles were prepared using previously reported literature procedures16. A lipid film of POPC (1-palmitoyl-2-oleoyl-sn-glycero-3-phosphocholine) was prepared from a chloroform solution under reduced pressure and then dried under vacuum for 4 or more hours. The lipid film was rehydrated by vortexing with an internal solution containing HPTS (1 mM). The lipid suspension was then subjected to 9 freeze-thaw cycles and left to rest at room temperature for 30 minutes. After this, the suspension was extruded 25 times through a 200 nm polycarbonate membrane resulting in unilamellar vesicles of a mean diameter of 200 nm. The un-encapsulated HPTS was removed by size exclusion chromatography using a sephadex G-25 column and an external solution eluent that does not contain HPTS. […]
After 200 s, detergent (50 μL of Triton X-100 (11 w%) in H2O:DMSO (7:1 v/v)) was added to lyse the vesicles and after 5 mins a final reading was taken. […]
The fractional fluorescence intensity (If) was calculated using: […]
where Rt is the fluorescence ratio at time t, R0 is the fluorescence ratio at time 0 and Rd is the fluorescence ratio at the end of the experiment, after the addition of detergent. […]
In the case of `N#CC(C#N)=NNc1cccc(Cl)c1` [CCCP], the “H+ or OH- transport (TBAOH base pulse)” value is reported as 100%.

System: MDA-MB-231 cells
Test: MTT cell viability assay
Assay type: cell-based
Conditions: Homo sapiens; MDA-MB-231, 24 h exposure, error from three repeats in brackets; read-out: IC50 (24 h)
Method: Herein, we carried out further in vitro studies at the University of Barcelona for the full library of perenosins. Single dose screening for cell viability using the methylthiazoletetrazolium (MTT) colorimetric assay over five different cell lines (cancer cells MCF-7, MDA-MB-231, A549 and SW620, and non-cancerous human cells MCF-10A) was conducted.
While perenosin 5, with pentyl substituent at R3, has similar cell viability effects as 1d, bis-indole perenosin 7 with pentyl substituent at R1 has a moderate degree of late onset by a factor of 7.
S11.1 Cell Lines and Culture Conditions
The human cell lines were obtained from the American Type Culture Collection (ATCC, Manassas VA). Breast adenocarcinoma MDA-MB-231 and MCF-7 cells were maintained in DMEM:F12 media (1:1; Biological Industries, Beit Haemek, Israel), and 10 µg/ml insulin and 50 µM sodium pyruvate from Sigma-Aldrich Chemical Co. (St. Louis, MO) were added to MCF-7 cells. Lung adenocarcinoma A549 and colorectal adenocarcinoma SW620 cells were cultured in DMEM media. All were supplemented with 10% foetal bovine serum (FBS; Invitrogen-Life Technologies, Carlsbad, CA) and 100 U/mL penicillin, 100 µg/mL streptomycin and 2 mM L-glutamine, all from Biological Industries.
Mammary epithelial MCF-10A cells were maintained in DMEM:F12 media supplemented with 5% horse serum (Life Technologies), 20 ng/ml EGF, 0.5 µg/ml Hydrocortisone, 100 ng/ml Cholera toxin, 10 µg/ml insulin all from Sigma-Aldrich and 100 U/ml penicillin, 100 µg/ml streptomycin, and 2 mM L- glutamine (Biological Industries). Cells were grown at 37 °C under a 5% CO2 atmosphere.
S11.2 Cell Viability Assays
Cell viability was evaluated using the methylthiazoletetrazolium (MTT) colorimetric assay. Cancer cells (MCF-7, MDA-MB-231, A549 and SW620) or non-cancerous human cells MCF-10A cells were harvested (10^4 cells/well) in 96-well plates in a final volume of 100 µl and allowed to grow overnight.
After 24 h, vehicle solution (DMSO) or experimental compounds were added at 10 µM (single point experiment) or at different ranging concentrations (0.8-100 µM) to the assay plate and were incubated for 24 or 72 h. Then, 10 µl of MTT (5 mg/ml; Sigma-Aldrich) were added and the plates were incubated for 4 h at 37°C. 100 µl of DMSO (Sigma-Aldrich) were added to dissolve crystals and the reading was taken spectrophotometrically at 570 nm using a multi-well plate reader (Multiskan FC, Thermo Scientific, Waltham, MA, USA). Cell viability and inhibitory concentration (IC) values were obtained using GraphPad Prism v5.0 (Graphpad Software, San Diego, CA, USA). All data are shown as the mean value ± standard deviation (S.D.) of three independent experiments.
For `Cc1cc(C)c(/C=N/c2cccc3cc[nH]c23)[nH]1` [Perenosin 1a], the IC50 was 38.3 µM. In the case of `Cc1cc(C)c(/C=N/c2cc(C(F)(F)F)cc3cc[nH]c23)[nH]1` [Perenosin 1b], the IC50 is reported as 32.2 µM. In the case of `Cc1cc(/N=C/c2[nH]c(C)cc2C)c2[nH]ccc2c1` [Perenosin 1c], the IC50 is reported as 34.4 µM. With `COc1cc(/N=C/c2[nH]c(C)cc2C)c2[nH]ccc2c1` [Perenosin 1e] the IC50 was 38.4 µM.

Same assay, conditions: Homo sapiens; MDA-MB-231, 72 h exposure, error from three repeats in brackets; read-out: IC50 (72 h)
With `Cc1cc(C)c(/C=N/c2cccc3cc[nH]c23)[nH]1` [Perenosin 1a] the IC50 was 24.4 µM. `Cc1cc(C)c(/C=N/c2cc(C(F)(F)F)cc3cc[nH]c23)[nH]1` [Perenosin 1b] showed an IC50 of 22.1 µM. In the case of `Cc1cc(/N=C/c2[nH]c(C)cc2C)c2[nH]ccc2c1` [Perenosin 1c], the IC50 is reported as 20.4 µM. With `COc1cc(/N=C/c2[nH]c(C)cc2C)c2[nH]ccc2c1` [Perenosin 1e] the IC50 was 32.7 µM.
